{"source": "patent US20100121108A1", "about": "“PROCESS FOR SYNTHESIZING DESVENLAFAXINE FREE BASE AND SALTS OR SOLVATES THEREOF” (MEDICHEM, S.A., priority 2006, published 2010)", "key": {"[1]": {"assay": "Particle size by Malvern Mastersizer S (volume distribution)", "type": "physicochemical", "procedure": "The particle size for desvenlafaxine succinate was measured using a Malvern Mastersizer S particle size analyzer with an MS1 Small Volume Sample Dispersion Unit stirred cell. A 300RF mm lens and a beam length of 2.4 mm were used. Samples for analysis were prepared by dispersing a weighed amount of desvenlafaxine succinate (approximately 0.1 g) in 20 mL of Lecithin Solution, previously prepared by dilution of 1.5 g of Soybean Lecithin to 200 mL of Isopar G. Mix gently until Lecithin dissolves (Lecithin solution). If it is necessary the solution can be sonicated. The suspension was delivered drop-wise to a background corrected measuring cell previously filled with dispersant (Isopar G) until the obscuration reached the desired level. Volume distributions were obtained for three times. Before and after the analysis, purge the sample and flush the MS1 unit with ethanol twice and with the dispersant at least three times. For characterization, the values of D10, D50 and D90 (by volume) were specifically listed, each one being the mean of the […] values available for each characterization parameter."}, "[2]": {"assay": "BET specific surface area (Micromeritics ASAP2010, N2 adsorption)", "type": "physicochemical", "details": "N2 at 77.3 K", "procedure": "The BET (Brunauer, Emmett and Teller) specific surface area for desvenlafaxine succinate was measured using a Micromeritics ASAP2010 equipment. Samples for analysis were degassed at 30° C.-70° C. under vacuum for about two hours. The determination of the adsorption of N2 at 77.3° K was measured for relative pressures in the range of 0.05-0.3 for a weighed amount of desvenlafaxine succinate (i.e., approximately 0.5 g)."}, "[3]": {"details": "milled and sieved desvenlafaxine succinate"}}}
{"smiles": "CN(C)CC(c1ccc(O)cc1)C1(O)CCCCC1", "note": "(centres unmarked) [desvenlafaxine succinate]", "values": [{"measurement": "D50 (v) particle size", "setting": "[1]; [3]", "value": "approximately 41 μm"}, {"measurement": "D90 (v) particle size", "setting": "[1]; [3]", "value": "approximately 155 μm"}, {"measurement": "D10 (v) particle diameter less than", "setting": "[1]; summary statement", "value": "approximately 4 μM"}, {"measurement": "surface area", "setting": "[2]", "value": "0.8457±0.0039", "unit": "m^2/g"}, {"measurement": "surface area", "setting": "[2]; listed as Desvenlafaxine succinate", "value": "approximately 0.8457±0.0039 m^2/g"}]}
